Reference: US20230220224A1, “AQUEOUS DISPERSION AND IMAGE RECORDING METHOD” (FUJIFILM CORPORATION, priority 2020, published 2023)

Conditions: in water at 20° C.

## CC(C)NC(C)C [DIPA, diisopropylamine]
  Neutralizer Solubility in water: 10 g/100 mL

## CN1C(C)(C)CC(O)CC1(C)C [Example 4-OH-PMP, 4-hydroxy-1,2,2,6,6-pentamethylpiperidine]
  Neutralizer Solubility in water: 4.8 g/100 mL
